From PubChem BioAssay AID1963851 (Molecular Pharmacology Branch, DTP, NCI, 2024)

System: 188146-221-R-J1-PDC complex spheroid viability
Experiment: Anticancer human tumor 188146-221-R-J1-PDC patient-derived colon adenocarcinoma cell line growth inhibition [POLQ]
Details: for IC50: curve of first compound; for viability, T/C: stronger effect = lower value
How it was run: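 Patient-derived tumour cells were co-cultured with HUVEC and mesenchymal stem cells as multicellular spheroids at 37 °C. They were treated with POLQ inhibitors (novobiocin, ART-558, RP6685) alone or combined with other agents. Top concentrations were at or near clinical Cmax (otherwise 10 microM; SN-38 at 1 microM), decreasing in half-log steps.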

[1] = second compound 0.0316 µM, first compound 0.0316 µM
[2] = second compound 0.0316 µM, first compound 0.1 µM
[3] = second compound 0.0316 µM, first compound 0.316 µM
[4] = second compound 0.0316 µM, first compound 1 µM
[5] = second compound 0.0316 µM, first compound 3.16 µM
[6] = second compound 0.0316 µM, first compound 10 µM
[7] = second compound 0.1 µM, first compound 0.0316 µM
[8] = second compound 0.1 µM, first compound 0.1 µM
[9] = second compound 0.1 µM, first compound 0.316 µM
[10] = second compound 0.1 µM, first compound 1 µM
[11] = second compound 0.1 µM, first compound 3.16 µM
[12] = second compound 0.1 µM, first compound 10 µM
[13] = second compound 0.316 µM, first compound 0.0316 µM
[14] = second compound 0.316 µM, first compound 0.1 µM
[15] = second compound 0.316 µM, first compound 0.316 µM
[16] = second compound 0.316 µM, first compound 1 µM
[17] = second compound 0.316 µM, first compound 3.16 µM
[18] = second compound 0.316 µM, first compound 10 µM
[19] = second compound 1 µM, first compound 0.0316 µM
[20] = second compound 1 µM, first compound 0.1 µM
[21] = second compound 1 µM, first compound 0.316 µM
[22] = second compound 1 µM, first compound 1 µM
[23] = second compound 1 µM, first compound 3.16 µM
[24] = second compound 1 µM, first compound 10 µM
[25] = second compound 3.16 µM, first compound 0.0316 µM
[26] = second compound 3.16 µM, first compound 0.1 µM
[27] = second compound 3.16 µM, first compound 0.316 µM
[28] = second compound 3.16 µM, first compound 1 µM
[29] = second compound 3.16 µM, first compound 3.16 µM
[30] = second compound 3.16 µM, first compound 10 µM
[31] = second compound 10 µM, first compound 0.0316 µM
[32] = second compound 10 µM, first compound 0.1 µM
[33] = second compound 10 µM, first compound 0.316 µM
[34] = second compound 10 µM, first compound 1 µM
[35] = second compound 10 µM, first compound 3.16 µM
[36] = second compound 10 µM, first compound 10 µM
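Also: spheroids exposed to compounds for seven days.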
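For viability, T/C in this document: 100% = DMSO vehicle control viability.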

CCCS(=O)(=O)Nc1ccc(F)c(C(=O)c2c[nH]c3ncc(-c4ccc(Cl)cc4)cc23)c1F + Cc1cccc(N(C)C(=O)C2C(O)CCN2c2nc(C)cc(C(F)(F)F)c2C#N)c1
IC50 (second compound 0.0316 µM): 9.75 µM
IC50 (second compound 0.1 µM): 6.82 µM
IC50 (second compound 0.316 µM): 6.53 µM
IC50 (second compound 1 µM): 6.44 µM
IC50 (second compound 3.16 µM): 7.14 µM
IC50 (second compound 10 µM): 5.88 µM
viability, T/C [1]: 117%
viability, T/C [2]: 96.5%
viability, T/C [3]: 102%
viability, T/C [4]: 87.1%
viability, T/C [5]: 78.8%
viability, T/C [6]: 47.3%
viability, T/C [7]: 113%
viability, T/C [8]: 97.3%
viability, T/C [9]: 106%
viability, T/C [10]: 91%
viability, T/C [11]: 85.8%
viability, T/C [12]: 33.4%
viability, T/C [13]: 116%
viability, T/C [14]: 112%
viability, T/C [15]: 99.2%
viability, T/C [16]: 88.3%
viability, T/C [17]: 90.9%
viability, T/C [18]: 29.2%
viability, T/C [19]: 93.4%
viability, T/C [20]: 98.1%
viability, T/C [21]: 101%
viability, T/C [22]: 90.6%
viability, T/C [23]: 81.5%
viability, T/C [24]: 30.7%
viability, T/C [25]: 107%
viability, T/C [26]: 104%
viability, T/C [27]: 104%
viability, T/C [28]: 77.4%
viability, T/C [29]: 96.4%
viability, T/C [30]: 31%
viability, T/C [31]: 106%
viability, T/C [32]: 97.7%
viability, T/C [33]: 105%
viability, T/C [34]: 85.1%
viability, T/C [35]: 92.6%
viability, T/C [36]: 13.4%

COc1ccc([C@@H](O)c2cc(-c3ncnc4cc(N5CCOCC5)ccc34)c(F)cc2Cl)nn1 + Cc1cccc(N(C)C(=O)C2C(O)CCN2c2nc(C)cc(C(F)(F)F)c2C#N)c1
IC50 (second compound 0.0316 µM): 5.81 µM
IC50 (second compound 0.1 µM): 5.62 µM
IC50 (second compound 0.316 µM): 4.69 µM
IC50 (second compound 1 µM): 4.67 µM
IC50 (second compound 3.16 µM): 4.91 µM
IC50 (second compound 10 µM): 1.86 µM
viability, T/C [1]: 97.6%
viability, T/C [2]: 98%
viability, T/C [3]: 87.9%
viability, T/C [4]: 89.2%
viability, T/C [5]: 72%
viability, T/C [6]: 30.3%
viability, T/C [7]: 93.6%
viability, T/C [8]: 111%
viability, T/C [9]: 94.3%
viability, T/C [10]: 80.4%
viability, T/C [11]: 61.7%
viability, T/C [12]: 39.4%
viability, T/C [13]: 100%
viability, T/C [14]: 101%
viability, T/C [15]: 100%
viability, T/C [16]: 94%
viability, T/C [17]: 59.4%
viability, T/C [18]: 32%
viability, T/C [19]: 97.9%
viability, T/C [20]: 94.3%
viability, T/C [21]: 94.4%
viability, T/C [22]: 78.7%
viability, T/C [23]: 59.6%
viability, T/C [24]: 32.5%
viability, T/C [25]: 97.3%
viability, T/C [26]: 93.3%
viability, T/C [27]: 90.5%
viability, T/C [28]: 73.1%
viability, T/C [29]: 61.7%
viability, T/C [30]: 33.8%
viability, T/C [31]: 88.2%
viability, T/C [32]: 80.8%
viability, T/C [33]: 85.9%
viability, T/C [34]: 56.3%
viability, T/C [35]: 51.9%
viability, T/C [36]: 36.9%
